This assay has as its target T1, myristoylated NCS-1 (NCS-1^WT) (Homo sapiens, UniProt P62166).
T1 construct: gene NCS1; full-length, N-myristoylated by co-expressed yeast NMT in E. coli (pET22b+), sulfo-cyanine-3 maleimide labelled; unlabelled protein used as titrant
Nature of the assay: fluorescence correlation spectroscopy, titration of PI liposomes with unlabelled protein. In kind it is binding. Particulars: Ca2+ present (1 mM CaCl2), pH 8.0, 100 mM NaCl; multilamellar liposomes of brain PI; concentration is of the protein; highly cooperative; sulfo-cyanine-3 labelled protein; read-out: dissociation constant.

T1 sequence (P62166 2-190): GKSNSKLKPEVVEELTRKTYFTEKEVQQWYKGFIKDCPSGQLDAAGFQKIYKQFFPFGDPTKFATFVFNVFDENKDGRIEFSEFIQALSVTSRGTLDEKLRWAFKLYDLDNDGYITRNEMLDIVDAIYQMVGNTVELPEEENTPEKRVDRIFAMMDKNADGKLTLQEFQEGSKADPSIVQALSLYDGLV

For phosphatidylinositol, the Kd came out at 3000 nM.

The record behind these values is PMC7072451, “Membrane Binding of Neuronal Calcium Sensor-1: Highly Specific Interaction with Phosphatidylinositol-3-Phosphate” (Biomolecules, 2020).
